# Results: patent US11000033B2, “Ketone or oxime compound, and herbicide” (NISSAN CHEMICAL CORPORATION, priority 2014, dated 2021)
# What was measured:
# Assay type in all cases: in vivo
# soybean = experiment: Test Example 4: effect on crop by soil treatment (symbol d); conditions: application herbicide amount 320 g/ha
# Method in brief: (§1)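 Crop seed is sown in spots together with several weed species in a box of sterilized diluvial soil. It is covered by about 1.5 cm of soil and kept in a greenhouse held between 25° C. and 30° C.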
# Galium spurium = experiment: Test Example 4: herbicidal effect by soil treatment (symbol Q); conditions: application herbicide amount 320 g/ha
# Method in brief: (§2)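 Seeds were sown in sterilized diluvial soil, covered with about 1.5 cm of soil, and the soil surface was sprayed with a water-diluted emulsion of the compound at a predetermined rate. Plants grew in a greenhouse at 25° C. to 30° C.; effects were scored visually 3 weeks after application.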
# corn = experiment: Test Example 4: effect on crop by soil treatment (symbol c); conditions: application herbicide amount 320 g/ha
# Method in brief: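 Sterilized diluvial soil, spot sowing, ~1.5 cm soil cover; greenhouse 25–30° C.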
# Digitaria ciliaris [1] = experiment: Test Example 5: herbicidal effect by foliage application, plastic box (symbol F); conditions: 320 g/ha, 3 weeks after application
# Method in brief: (§3)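 Post-emergence spray; diluvial soil (sterilized), ~1.5 cm seed cover; greenhouse 25–30° C; 14-day-old plants; water-diluted emulsion at predetermined dose; visual score at 3 wk post-treatment.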
# Digitaria ciliaris [2] = experiment: Test Example 4: herbicidal effect by soil treatment (symbol F); conditions: application herbicide amount 320 g/ha
# Method in brief: as §2
# Lolium multiflorum Lam. = experiment: Test Example 4: herbicidal effect by soil treatment (symbol K); conditions: application herbicide amount 320 g/ha
# Method in brief: as §2
# Veronica persica [3] = experiment: Test Example 5: herbicidal effect by foliage application, plastic box (symbol R); conditions: 320 g/ha, 3 weeks after application
# Method in brief: as §3
# beet [4] = experiment: Test Example 4: effect on crop by soil treatment (symbol f); conditions: application herbicide amount 320 g/ha
# Method in brief: as §1
# beet [5] = experiment: Test Example 5: effect on crop by foliage application, plastic box (symbol f); conditions: 320 g/ha, 3 weeks after application
# Method in brief: (§4)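 Diluvial soil, sterilized and boxed (21 × 13 × 7 cm), received spot-sown seed covered by about 1.5 cm soil; plants were then greenhouse-grown at 25–30° C.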
# Stellaria media = experiment: Test Example 5: herbicidal effect by foliage application, plastic box (symbol P); conditions: 320 g/ha, 3 weeks after application
# Method in brief: as §3
# Setaria viridis = experiment: Test Example 5: herbicidal effect by foliage application, plastic box (symbol G); conditions: 320 g/ha, 3 weeks after application
# Method in brief: as §3
# [6] = test system: directly sowed rice plant; experiment: Test Example 3: effect on crop by foliage application, Wagner pot (symbol b); conditions: application herbicide amount 320 g/ha, Table 24
# Method in brief: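 Wagner pot (1/10000 are), alluvial soil, submerged 0.1–0.5 cm; sown E. crus-galli var. crus-galli, L. chinensis, C. difformis, rice; greenhouse 25–30 °C.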
# Avena fatua = experiment: Test Example 5: herbicidal effect by foliage application, plastic box (symbol I); conditions: 320 g/ha, 3 weeks after application
# Method in brief: as §3
# rapeseed = experiment: Test Example 4: effect on crop by soil treatment (symbol g); conditions: application herbicide amount 320 g/ha
# Method in brief: as §1
# Veronica persica [7] = experiment: Test Example 4: herbicidal effect by soil treatment (symbol R); conditions: application herbicide amount 320 g/ha
# Method in brief: as §2
# Apera spica-venti = experiment: Test Example 5: herbicidal effect by foliage application, plastic box (symbol L); conditions: 320 g/ha, 3 weeks after application
# Method in brief: as §3
# rice plant = experiment: Test Example 5: effect on crop by foliage application, plastic box (symbol b); conditions: 320 g/ha, 3 weeks after application
# Method in brief: as §4
# rice = experiment: Test Example 4: effect on crop by soil treatment (symbol b); conditions: application herbicide amount 320 g/ha
# Method in brief: as §1
# [8] = test system: Echinochloa crus-galli var. crus-galli; experiment: Test Example 4: herbicidal effect by soil treatment (symbol H); conditions: application herbicide amount 320 g/ha
# Method in brief: as §2
# Abutilon theophrasti = experiment: Test Example 5: herbicidal effect by foliage application, plastic box (symbol M); conditions: 320 g/ha, 3 weeks after application
# Method in brief: as §3
# Chenopodium album = experiment: Test Example 5: herbicidal effect by foliage application, plastic box (symbol O); conditions: 320 g/ha, 3 weeks after application
# Method in brief: as §3
# wheat = experiment: Test Example 5: effect on crop by foliage application, plastic box (symbol e); conditions: 320 g/ha, 3 weeks after application
# Method in brief: as §4
smiles,measurement,setting,value
Cc1cc(Br)cc(C)c1C1=C(O)CC(CC(=NOCC(F)(F)F)C2CC2)C1=O (stereo not shown) [9-009],"Effect on crop grade, d: soybean",soybean,0 (Herbicidal ratio of 5% or lower (almost no effect))
same,"Herbicidal effect grade, Q: Galium spurium",Galium spurium,0 (Herbicidal ratio of 5% or lower (almost no effect))
same,"Effect on crop grade, c: corn",corn,0 (Herbicidal ratio of 5% or lower (almost no effect))
same,"F: Digitaria ciliaris, herbicidal effect grade",Digitaria ciliaris [1],4 (Herbicidal ratio of 70% or higher and lower than 90%)
same,"Herbicidal effect grade, F: Digitaria ciliaris",Digitaria ciliaris [2],5 (Herbicidal ratio of 90% or more (almost completely withered))
same,"Herbicidal effect grade, K: Lolium multiflorum Lam.",Lolium multiflorum Lam.,5 (Herbicidal ratio of 90% or more (almost completely withered))
same,"R: Veronica persica, herbicidal effect grade",Veronica persica [3],0 (Herbicidal ratio of 5% or lower (almost no effect))
same,"Effect on crop grade, f: beet",beet [4],0 (Herbicidal ratio of 5% or lower (almost no effect))
same,"f: beet, effect on crop grade",beet [5],0 (Herbicidal ratio of 5% or lower (almost no effect))
same,"P: Stellaria media, herbicidal effect grade",Stellaria media,0 (Herbicidal ratio of 5% or lower (almost no effect))
same,"G: Setaria viridis, herbicidal effect grade",Setaria viridis,5 (Herbicidal ratio of 90% or more (almost completely withered))
same,b (directly sowed rice plant) effect on crop grade,[6],5 (Herbicidal ratio of 90% or more (almost completely withered))
same,"I: Avena fatua, herbicidal effect grade",Avena fatua,5 (Herbicidal ratio of 90% or more (almost completely withered))
same,"Effect on crop grade, g: rapeseed",rapeseed,0 (Herbicidal ratio of 5% or lower (almost no effect))
same,"Herbicidal effect grade, R: Veronica persica",Veronica persica [7],1 (Herbicidal ratio of 5% or higher and lower than 20%)
same,"L: Apera spica-venti, herbicidal effect grade",Apera spica-venti,5 (Herbicidal ratio of 90% or more (almost completely withered))
same,"b: directly sowed rice plant, effect on crop grade",rice plant,5 (Herbicidal ratio of 90% or more (almost completely withered))
same,"Effect on crop grade, b: directly sowed rice plant",rice,0 (Herbicidal ratio of 5% or lower (almost no effect))
same,"Herbicidal effect grade, H: Echinochloa crus-galli var. crus-galli",[8],0 (Herbicidal ratio of 5% or lower (almost no effect))
same,"M: Abutilon theophrasti, herbicidal effect grade",Abutilon theophrasti,0 (Herbicidal ratio of 5% or lower (almost no effect))
same,"O: Chenopodium album, herbicidal effect grade",Chenopodium album,0 (Herbicidal ratio of 5% or lower (almost no effect))
same,"e: wheat, effect on crop grade",wheat,0 (Herbicidal ratio of 5% or lower (almost no effect))
